# Assay results from publication PMC6637425 (ChemMedChem, 2019).
# What was measured:
# [1] = target: BACE1 enzyme (Homo sapiens, UniProt P56817); experiment: BACE1 enzyme inhibition, Ki from kinetic data under tight-binding conditions; format: biochemical
# [2] = target: T1, BACE2 enzyme (Homo sapiens, UniProt Q9Y5Z0); experiment: BACE2 enzyme inhibition, Ki from kinetic data under tight-binding conditions; format: biochemical; settings: Ki (nM) BACE2, Table 3
# T1 sequence (Q9Y5Z0 63-518): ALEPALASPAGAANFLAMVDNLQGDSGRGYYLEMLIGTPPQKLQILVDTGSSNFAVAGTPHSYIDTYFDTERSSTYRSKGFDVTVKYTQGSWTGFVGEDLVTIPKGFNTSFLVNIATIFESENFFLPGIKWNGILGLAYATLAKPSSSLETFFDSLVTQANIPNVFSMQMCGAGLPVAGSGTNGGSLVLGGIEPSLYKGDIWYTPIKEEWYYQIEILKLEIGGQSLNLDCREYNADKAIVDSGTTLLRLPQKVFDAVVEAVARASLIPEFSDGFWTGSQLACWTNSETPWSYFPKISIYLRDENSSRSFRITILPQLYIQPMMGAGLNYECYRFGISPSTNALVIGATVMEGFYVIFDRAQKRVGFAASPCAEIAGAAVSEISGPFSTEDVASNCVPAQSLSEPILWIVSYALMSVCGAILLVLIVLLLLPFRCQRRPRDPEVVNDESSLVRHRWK
# Sequence of BACE1 enzyme (P56817 46-501): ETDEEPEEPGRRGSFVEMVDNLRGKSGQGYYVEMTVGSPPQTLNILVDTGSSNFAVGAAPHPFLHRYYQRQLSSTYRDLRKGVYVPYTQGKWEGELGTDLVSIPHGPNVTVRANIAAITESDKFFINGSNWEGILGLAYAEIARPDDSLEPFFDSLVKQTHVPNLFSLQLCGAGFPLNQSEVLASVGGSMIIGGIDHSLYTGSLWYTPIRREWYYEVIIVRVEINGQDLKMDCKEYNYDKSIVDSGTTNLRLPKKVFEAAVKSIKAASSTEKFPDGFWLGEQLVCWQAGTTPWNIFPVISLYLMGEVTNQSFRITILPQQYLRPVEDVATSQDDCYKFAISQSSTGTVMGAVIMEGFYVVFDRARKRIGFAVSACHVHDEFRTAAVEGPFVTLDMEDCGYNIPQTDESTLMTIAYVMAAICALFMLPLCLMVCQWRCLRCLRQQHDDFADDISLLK
smiles,measurement,setting,value
"COc1cccc(CNC[C@@H](O)[C@H](Cc2ccccc2)NC(=O)c2cc(C)cc(C(=O)N(C)Cc3nc(C)co3)c2)c1 [inhibitor 3n, N^1-((2S,3R)-3-Hydroxy-4-((3-methoxybenzyl)amino)-1-phenylbutan-2-yl)-N^3,5-dimethyl-N^3-((4-methyloxazol-2-yl)methyl)isophthalamide]",Ki,"[1]; Ki (nM) BACE1, Table 3",25.4 nM
same,selectivity for BACE1 against BACE2,[1]; ratio of Ki values,> 75 fold
same,Ki,[2],1920 nM
